Source: paper PMC12040169 (PLOS Biology, 2025)

Test: in vitro
Conditions: human, hela cells, % viability

SMILES	viability at 28.5 h, 10 µM [%]
Cc1cccc(CN2CCC(NC(=O)Cn3cc(Br)ccc3=O)CC2)c1 [CBK305669]	80
NCCNc1cccc2c1ccn2S(=O)(=O)c1ccccc1 [CBK028470C]	80.2
O=C(CN1CCOCC1)Nc1ccc(S(=O)(=O)N2CCCC2)cc1 [CBK268468]	103
NCCNCCCCOc1ccc(Cl)c(Cl)c1 [CBK265059]	109
Cc1ccc(N(CC(=O)Nc2ccccc2F)S(=O)(=O)c2ccc(F)cc2)cc1 [CBK263333]	91.9
O=C(CN1C(=O)c2ccccc2C1=O)NCC1COc2ccccc2O1 (stereo not drawn) [CBK222526]	96.8
CSc1nnc(-c2ccccc2O)n1CCc1ccccc1 [CBK076668]	96.8
CCN1CCC(CC(=O)N2CCC(c3ccccc3)C2)CC1 (stereo not drawn) [CBK281958]	79.5
CSc1ccccc1CNC(=O)c1ccc(C)nc1N1CCOCC1 [CBK106224]	91.9
CN(C)c1ccc(-n2ncc(-c3ccsc3)n2)cc1 [CBK112845]	86.8
COc1cc(C)c(Nc2cc(-c3ccc(F)c(F)c3)ncn2)cc1OC [CBK090787]	73.4
O=C(CC1Nc2ccccc2NC1=O)Nc1ccc(F)c(Cl)c1 (stereo not drawn) [CBK266381]	97
FC(F)(F)Oc1cccc(-c2cncc(NCc3cccs3)n2)c1 [CBK065909]	97.5
Cn1c(=O)c2c(nc(N3CCOCC3)n2CC/N=C2/CCCN2)n(C)c1=O [CBK267709C]	85.9
COc1ccc(C(=O)Nc2nnc(-c3ccc(OC)c(OC)c3)o2)cc1OC [CBK287745]	93.7
O=C(Nc1cccc(C(=O)O)c1)/C(=C\c1ccc2c(c1)OCO2)NC(=O)c1ccccc1 [CBK263697]	113
COc1ccc(-c2cc(C(=O)Nc3nccs3)cnc2-c2ccc(Cl)cc2)cc1 [CBK037553]	87.4
Nc1ccc2cc(-c3ccsc3)cnc2n1 [CBK081167]	101
CN(C)S(=O)(=O)N1CCN(c2ccc([N+](=O)[O-])c(NC3CC3)c2)CC1 [CBK265158]	87
COc1cccc2c1cc(C(=O)NCCCC1CCOC1)n2C (stereo not drawn) [CBK283284]	93.4
COc1ccc(/C=N/NC(=O)c2ccc(O)cc2O)cc1COc1cc(C)c(Cl)c(C)c1 [CBK263000]	90.3

SMILES	viability at 28.5 h, 10 µM [%]
CCn1nc(C)c(CN(C)Cc2nc3ccccc3[nH]2)c1C [CBK282126]	93.9
N#Cc1cccc(S(=O)(=O)Nc2cccc(C(=O)O)c2)c1 [CBK155699]	95.7
COc1ccc(C2(C(=O)NCc3cccs3)CC2)cc1 [CBK149831]	106
CCCCNc1nnc(-c2cc(C)nn2C)s1 [CBK288019]	91.5
Cc1nnc(SCc2cc(=O)nc(Nc3nc(C)c4ccccc4n3)[nH]2)s1 [CBK266549]	103
Cc1noc(C)c1NC(=O)c1n[nH]c2ccccc12 [CBK200301]	104
Cn1c(SCC(=O)Nc2c(F)cc(F)cc2Br)nnc1-c1cnccn1 [CBK267584]	97.6
CCOC(=O)c1cnc(SC)nc1NCCc1c[nH]cn1 [CBK086623]	92.6
Clc1ccc(-n2c(COc3cccc4cccnc34)nnc2SCc2ccccc2)cc1 [CBK268502]	103
CN1CCN(N/C=C2/C(=O)N(c3ccc([N+](=O)[O-])cc3)N=C2c2ccccc2)CC1 [CBK262763]	89.6
CN(C)CCCNC(=O)c1cc(-c2ccc(Cl)cc2)[nH]n1 [CBK116564T]	98.5
Cc1ccn2c(-c3csc(Nc4ccc(C(=O)O)cc4)n3)c(C)nc2c1 [CBK263283B]	97.5
O=C(c1ccc(Oc2ccccc2)cc1)N1CCC2(CCN(Cc3ccccc3)C2)C1 (stereo not drawn) [CBK136833]	99.3
Cc1ccc(-n2c(C)cc(/C=N/NC(=O)c3ccc(CN4CCOCC4)cc3)c2C)cc1 [CBK263324]	86.8
Oc1ccc2[nH]cc(CCNC(c3ccccc3)(c3ccccc3)c3ccccc3)c2c1 [CBK260891]	103
O=C(NCCO)/C(=C\c1ccccc1)NC(=O)c1ccc(I)cc1 [CBK265162]	89.2
Cc1cc(CN(C)C(=O)c2cc3sccc3[nH]2)no1 [CBK304340]	82.7
CN(C)c1ncccc1OC1CCN(c2nnc(C(F)(F)F)s2)C1 (stereo not drawn) [CBK304789]	97.1
O=C(CCCn1ccnc1)Nc1ccc(N2CCCCC2)c(F)c1 [CBK281385]	81.1
COCCNc1nc(-c2ccccc2CO)cnc1N [CBK063575]	108
O=C(NCCNC1CCC(c2ccccc2)CC1)c1ccc(F)cc1 (stereo not drawn) [CBK266857]	88.2

Same assay, conditions: human, hela cells, % viability, bulk resorufin, single well

SMILES	viability at 28.5 h, 10 µM [%]
CCOC(=O)N1CCC2(CC1)OCc1ccc(-c3ccc(S(C)(=O)=O)cc3)cc1O2 [CBK133035]	86.1
COc1ccc(Cn2nc(C(=O)O)c3ccccc32)cc1OC [CBK093529]	93
CCOC(=O)C1(c2ccccc2)CCN(C(=O)Cc2c[nH]cn2)CC1 [CBK132205]	94.3
